This note sets out measurements from PMC4529485 (Biochemistry, 2010).

This test addresses myeloperoxidase (MPO) (Homo sapiens, UniProt P05164). As to the kind of experiment: flash photolysis/recombination kinetics. In kind it is binding.

Chain of myeloperoxidase (MPO) (P05164 165-273): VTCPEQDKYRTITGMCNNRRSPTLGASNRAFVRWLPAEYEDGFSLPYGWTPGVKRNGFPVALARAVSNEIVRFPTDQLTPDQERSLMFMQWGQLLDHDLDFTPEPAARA
Chain of myeloperoxidase (MPO) (P05164 279-745): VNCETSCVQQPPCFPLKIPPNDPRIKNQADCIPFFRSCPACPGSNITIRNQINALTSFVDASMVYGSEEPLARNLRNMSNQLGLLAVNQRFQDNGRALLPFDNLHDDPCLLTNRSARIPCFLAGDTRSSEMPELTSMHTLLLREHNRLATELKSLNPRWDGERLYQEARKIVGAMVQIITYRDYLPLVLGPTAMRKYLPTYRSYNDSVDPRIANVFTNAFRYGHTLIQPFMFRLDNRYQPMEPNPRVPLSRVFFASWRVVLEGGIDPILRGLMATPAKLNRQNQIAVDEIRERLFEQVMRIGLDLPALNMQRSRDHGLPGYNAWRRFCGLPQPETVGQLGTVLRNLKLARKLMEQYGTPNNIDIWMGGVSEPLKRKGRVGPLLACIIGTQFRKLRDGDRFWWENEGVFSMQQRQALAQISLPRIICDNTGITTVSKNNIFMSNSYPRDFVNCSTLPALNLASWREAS

Take `[C-]#[O+]` [CO]: the Kd amounted to 1600 µM.
